Measured values as given in patent publication US20230404922A1, “MICROSPHERE FORMULATIONS COMPRISING BTK INHIBITORS AND METHODS FOR MAKING AND USING THE SAME” (Oakwood Laboratories, LLC, priority 2021, published 2023).

Experiments:
[1] = cited from earlier work

C=CC(=O)N1CCC[C@@H](n2nc(-c3ccc(Oc4ccccc4)cc3)c3c(N)ncnc32)C1 [ibrutinib, Ibrutinib]
pKa [1]: about 3.74
solubility in dichloromethane (DCM) (DCM): > 300 mg/g
aqueous solubility (water): < 2.5 mg/g
